We go through one compound from article PMC6278378, “Virtual Screening, Biological Evaluation, and 3D-QSAR Studies of New HIV-1 Entry Inhibitors That Function via the CD4 Primary Receptor” (Molecules, 2018).

One data set relates to PBMCs. The experiment in a line: PBMC viability assay (CellTiter-Blue). It is filed as cell-based. Particulars: up to 150 μM. The method, then:
We employed a cell viability assay to test the potential cytotoxicity of 3. In parallel with the anti-HIV-1 assay described above, the same densities of PBMCs were seeded and treated with the test compounds for the same duration.
Blood samples were collected from healthy donors and diluted with an equal amount of 1× PBS. Approximately 15 mL Ficoll was transferred to a sterile 50 mL tube, and then overlaid with 15 mL diluted blood. After centrifugation (Centrifuge 5810R, Eppendorf, Hamburg, Germany) at 1800 rpm for 30 min at room temperature, the PBMCs were obtained and washed twice with 40 mL 1× PBS by centrifugation (1100 rpm, 10 min for each time) at room temperature. Cell pellets were resuspended in 50 mL RPMI 1640 supplemented with 10% FBS and 100 μg/mL Phytohemagglutinin (PHA, Sigma-Aldrich, St. Louis, MO, USA) and cultured for 24 h at 37 °C with 5% CO2. […]
In addition to the anti-HIV assays described above, the same numbers of PBMCs were seeded and treated with the test compounds for the same periods. After a 24 h incubation at 37 °C, the cell viability was determined using the CellTiter-Blue (Promega Co., Madison, WI, USA) cell viability assay. The fluorescence (560EX/590EM) was recorded using a Synergy II microplate reader.
A general note: Resazurin is reduced to fluorescent resorufin, in cell work by metabolically active cells.

Data set [1] deals with various cancer cell lines. Also noted: method as in PMID 26474275, PMID 22524450. Particulars: 100 μM; by increasing intracellular ROS level; cited from earlier work.
Another data set has as its system HIV-1 (NL4-3 strain). Put plainly: microbe, parasite or virus in culture. Particulars: Human immunodeficiency virus 1, NL43, PBMC; PBMCs, HIV-1 NL4-3, 24 h; read-out: IC50, HIV-1 entry inhibition (intracellular p24). In kind it is cell-based. Here is the method: We also performed anti-HIV-1 entry assays to investigate the potential suppression by 3 of HIV-1 infection via its entry mechanism.
The Anti-HIV-1 entry assay was performed by measuring intercellular p24 antigen. Before the infection, PBMCs (2.5 × 10^6 cells/mL) were added into 96-well plates at 100 μL/well, then co-incubated with compounds of various concentrations for 2 h. PBMCs were then washed twice with PBS and infected with the NL4-3 strain of HIV-1 at an MOI of 0.02 for 2 h at 37 °C with 5% CO2 (CO2 incubator, Eppendorf, Hamburg, Germany). After two washes with PBS (1200 rpm, 20 °C, 5 min), the cells were re-suspended in 100 µL complete medium and incubated for 24 h. Subsequently, the PBMCs were washed and resuspended in 100 µL/well lysis buffer containing 1% protease inhibitor cocktail (Sigma-Aldrich, St. Louis, MO, USA). The intercellular p24 antigen was measured according to the protocol provided with the HIV-1 ELISA kit (PerkinElmer Inc. Waltham, MA, USA).

The subject of another data set is HIV-1 NL4-3 strain. The experiment in a line: Anti-HIV-1 infection assay (CEM-GFP reporter cells, GFP fluorescence). The settings on record: Human immunodeficiency virus 1, NL43, HIV-1 NL4-3, 4-5 days. In kind it is cell-based. From the text: We performed anti-HIV-1 infection and anti-HIV-1 entry assays by measuring GFP expression and intracellular p24 antigen level. For the anti-HIV-1 infection assays, the CEM-GFP reporter cell line was used, and HIV-1 infection induced a 10- to 1000-fold increase in the relative fluorescence of the cells.
The CEM-GFP cells were obtained from the NIH AIDS program (NIH AIDS Reagent Program, Division of AIDS, NIAID, NIH: CEM-GFP Cells from Dr. Jacques Corbeil) and cultured in RPMI 1640 medium containing 10% FBS, 1% penicillin-streptomycin (Life Technologies, Carlsbad, CA, USA), 1% 200 mM L-glutamine (Mediatech-VWR, Aurora, CO, USA), and 500 µg/mL G418 (BioPioneer Inc, San Diego, CA, USA). After collecting and counting, the CEM-GFP cells were infected with HIV-1 NL4-3 strain (MOI 0.01) at 37 °C for 2–3 h, cells were then washed twice with PBS, and 10^5 cells/well were seeded into a 96-well plate in the presence of different concentrations of test compounds. After culturing at 37 °C with 5% CO2 for 4 or 5 days, the GFP fluorescence (485EX/528EM) was measured using a Synergy II microplate reader (BioTek Instruments, Inc., Winooski, VT, USA).

The subject of a further data set is HIV-1. Details: method as in PMID 12207905. Particulars: inactive or weakly active; cited from earlier work.
For a further data set, the target named is T1, CD4 (Homo sapiens, UniProt P01730).
T1 construct: endogenous in cells; host or cells: SUP-T1 cells
Put plainly: CD4 competitive binding assay (FITC anti-human CD4 antibody, SUP-T1 cells). Here is the method: We chose CD4-expressing SUP-T1 cells to perform the competitive CD4 binding assay. Non-labeled anti-human CD4 antibody (RPA-T4 clone, BioLegend, San Diego, CA, USA) was used as a positive control.
The SUP-T1 cells were cultured in RPMI1640 medium supplemented with 10% (v/v) fetal bovine serum (FBS), 100 IU penicillin, 0.1 mg/mL streptomycin, and 2 mM L-glutamine. After collecting and washing twice with fluorescence activated cell sorting (FACS) buffer (0.5% BSA, 0.05% sodium azide in PBS) by centrifugation, SUP-T1 cells were seeded in a 96-well v-bottom plate at 5 × 10^5 cells/well. The supernatant was discarded by centrifugation and the cell pellet was resuspended with 50 μL various 2× concentrations of test compounds and 50 μL fluorescein isothiocyanate (FITC) labeled anti-human CD4 antibody (RPA-T4 clone, BioLegend, San Diego, CA, USA). The plate was incubated for 40 min on ice. After incubation, the cells were washed twice with FACS buffer by centrifugation, and then resuspended with the assay buffer. The FACS buffer was added at a volume of 50 μL per well. The fluorescence (485EX/528EM) was recorded using a Synergy II plate reader (BioTek Instruments, Inc., Winooski, VT, USA). Experimental data were generated in duplicate each time, and from at least three independent experiments. The mean values of fluorescence were normalized and expressed as a percentage of the control group values. Binding curves and IC50 values were calculated by GraphPad Prism 7 (GraphPad Software Inc., La Jolla, CA, USA) and presented as the mean ± SEM.

The next data set concerns SUP-T1 cells. The experiment in a line: SUP-T1 cell viability assay. Particulars: up to 200 μM. In kind it is cell-based. The method, then:
We also performed a cell viability assay to test the potential cytotoxicity of 3. In parallel with the competitive CD4 binding assay described above, the same densities of SUP-T1 cells were seeded and treated with the test compounds for the same duration.

pIC50: −log10 of the molar value. Entries after “also recorded” stand apart in the source; their conditions may differ.

As for `O=C(O)CCc1c2ccc(=O)c(O)c-2oc2c(O)c(O)ccc12` [Compound 3, 3-(4,5,6-trihydroxy-3-oxo-3H-xanthen-9-yl) propanoic acid], the “Cytotoxicity in PBMCs” value in the data set on PBMCs is “without a cytotoxicity effect; also recorded: no cytotoxicity; also recorded: did not show an ability to affect cell growth”. Also, in data set [1], the “growth inhibition of cancer cell lines” value was “inhibit the growth”. Also, the pIC50 (in general, the IC50 on a negative log10 scale, so that one unit is a factor of ten) was 5.05 in the data set with HIV-1 (NL4-3 strain); 5.00 in the data set on HIV-1 NL4-3 strain; 4.35 at CD4 (SUP-T1 cells, anti-human CD4 antibody competition). Further, the “protection in anti-HIV-1 infection assay” value in the data set on HIV-1 is given as 0–49%. In addition, the inhibition (as a rule, the share of the control response that was lost under treatment) at 100 µM on CD4 (100 μM, inhibition of anti-human CD4 antibody binding to SUP-T1 cells) is 94.9%. Further, the “PInhibition (Experimental Data)” value on CD4 (transformed from % inhibition at 100 μM, presented as -ln) turned out to be 5.273. Also, the “Cytotoxicity in SUP-T1 cell viability assay” value in the data set with SUP-T1 cells is listed as “no cytotoxicity”; in the data set on SUP-T1 cells (listed as NSC119915) it was “not showing any cytotoxicity”.
